In article PMC10831936 (iScience, 2024):
Several values for one entry are separate records, joined by “and”; a condition that tells them apart may be missing. Equal entries are not always repeated. Structures can show the parent of a compound that is named as a salt. Where two headings read alike, the source gives them in different places.

Columns and labels:
[1] = test system: ERBB receptors, HTR2A, and downstream signaling pathways; experiment: ERBBprofiler multiplexed barcoded assay, overall statements across all receptor batches and sensors; conditions: PC12 cells, stimulation mix
ERBB4 NFAT = experiment: ERBBprofiler barcoded NFAT pathway sensor, ERBB4 co-transfected; assay type: cell-based, Rattus norvegicus
ERBB2 [2] = test system: ERBB2; design: method as in Schaefer et al., 2007; conditions: phospho-WB in NR6 cells; ref Schaefer et al., 2007; read-out: IC50_Literature, ERBB2; cited from earlier work
ERK (MAPK) = test system: ERK (MAPK); design: method as in Schaefer et al., 2007; conditions: phospho-WB in NR6 cells; ref Schaefer et al., 2007; read-out: IC50_Literature, ERK (MAPK); cited from earlier work
ERBB4 [3] = conditions: read-out: IC50_Literature, ERBB4; cell viability overexpressing ERBB4 variants; ref Chakroborty et al., 2022; cited from earlier work
HTR2A NFAT = experiment: ERBBprofiler barcoded NFAT pathway sensor, HTR2A co-transfected; conditions: for IC50: Rattus norvegicus, PC-12, 6 h, read-out: HTR2A NFAT IC50
ERBB4 EGR1p = experiment: ERBBprofiler barcoded EGR1p pathway sensor, ERBB4 co-transfected; conditions: for IC50: Rattus norvegicus, PC-12, 6 h, read-out: ERBB4 EGR1p IC50; for EGR1p (ERBB4) activity EC50 (barcode): agonist dose response, PC12 cells, ERBB4 co-transfected, barcode readout
ERBB2/3 EGR1p = experiment: ERBBprofiler barcoded EGR1p pathway sensor, ERBB2/3 co-transfected; conditions: read-out: ERBB2/3 EGR1p IC50
EGFR NFAT = experiment: ERBBprofiler barcoded NFAT pathway sensor, EGFR co-transfected; assay type: cell-based, Rattus norvegicus
ERBB2 [4] = conditions: read-out: IC50_Literature, ERBB2; cited from earlier work
ERBB3 = conditions: read-out: IC50_Literature, ERBB3; cited from earlier work
EGFR EGR1p = experiment: ERBBprofiler barcoded EGR1p pathway sensor, EGFR co-transfected; conditions: read-out: EGFR EGR1p IC50
HTR2A EGR1p = experiment: ERBBprofiler barcoded EGR1p pathway sensor, HTR2A co-transfected; conditions: read-out: HTR2A EGR1p IC50
CRE sensor = CRE sensor only luciferase assay in PC12 cells; assay type: cell-based, Rattus norvegicus
cAMP = experiment: GloSensor cAMP assay in PC12 cells; assay type: cell-based, Rattus norvegicus; conditions: Rattus norvegicus, PC-12, 0.25 h, constant stimulation mix, 15 min, cAMP increase
calcium = experiment: Fluo-4 AM calcium assay in PC12 cells; assay type: cell-based, Rattus norvegicus; conditions: stimulation mix
ERBB2 [5] = test system: ERBB2; design: method as in La Monica et al., 2017; conditions: phospho-WB in PC9/HER2c1 cells; ref La Monica et al., 2017; read-out: IC50_Literature, ERBB2; cited from earlier work
ERBB4 [6] = test system: ERBB4; design: method as in Cross et al., 2014; conditions: commercial biochemical kinome panel (Millipore); ref Cross et al., 2014; read-out: IC50_Literature, ERBB4; cited from earlier work
EGFR [7] = conditions: read-out: IC50_Literature, EGFR; phospho-WB in Cos 7 cells; ref Floc'h et al., 2020; cited from earlier work
CRE (HTR2A) = experiment: CRE pathway sensor luciferase assay, HTR2A transfected; assay type: cell-based, Rattus norvegicus; conditions: agonist dose response, PC12 cells, luciferase readout
Protocol: (§1) 50,000 PC12 cells were seeded per 96-well onto poly-L-lysin (PLL)-coated plates and transfected the following day (day in vitro 1, DIV1) with assay plasmids using Lipofectamine 3000 (Thermo Fisher Scientific). For split TEV assays, plasmids (pcDNA3 or pTag4C backbone) encoding receptor-NTEV-tcs-GV, GRB2-SH2-CTEV (for ERBB receptors) or ARBB2-1-383-CTEV (for HTR2A) (all 10 ng/well), and the p10xUAS-luc2 reporter plasmid (10 ng/well) were used. For pathway assays, the receptor plasmids (15 ng/well) and pathway reporter plasmids (15 ng/well) pEGR1p-luc2 for monitoring MAPK signaling, pCRE-CMVmin-luc2 for monitoring cAMP/Ca^2+ signaling, or p6xNFAT-CMVmin-luc2 for Ca^2+ signaling were used. Transient transfections were conducted according to the manufacturer’s instructions. On DIV2, cells were starved in medium containing 1% FCS for 16 h. […] In the case of antagonist assays, compounds were added at increasing doses together with the stimulus. Cells were lysed in 1x passive lysis buffer (Promega) and subjected to a firefly luciferase assay using a self-made substrate for firefly luciferase.[100] Luciferase activity was analyzed in a Mithras LB 940 Multimode Microplate Reader (Berthold Technologies). All assays were run in 96-well plates using six replicates per condition.

NFAT (HTR2A) = experiment: NFAT pathway sensor luciferase assay, HTR2A transfected; assay type: cell-based, Rattus norvegicus; conditions: agonist dose response, PC12 cells, luciferase readout
Protocol: as §1

HTR2A CRE = experiment: ERBBprofiler barcoded CRE pathway sensor, HTR2A co-transfected; conditions: read-out: CRE (HTR2A) activity EC50 (barcode); agonist dose response, PC12 cells, HTR2A co-transfected, barcode readout
[8] = test system: CRE (cAMP/Ca2+ signaling); experiment: ERBBprofiler barcoded CRE sensor only (no receptor transfected); conditions: Rattus norvegicus, PC-12, read-out: CRE EC50 (barcode)
EGFR [9] = biological target: EGFR (Homo sapiens, UniProt P00533); experiment: ERBBprofiler barcoded split TEV assay, EGFR
EGFR, sequence (P00533 25-1210): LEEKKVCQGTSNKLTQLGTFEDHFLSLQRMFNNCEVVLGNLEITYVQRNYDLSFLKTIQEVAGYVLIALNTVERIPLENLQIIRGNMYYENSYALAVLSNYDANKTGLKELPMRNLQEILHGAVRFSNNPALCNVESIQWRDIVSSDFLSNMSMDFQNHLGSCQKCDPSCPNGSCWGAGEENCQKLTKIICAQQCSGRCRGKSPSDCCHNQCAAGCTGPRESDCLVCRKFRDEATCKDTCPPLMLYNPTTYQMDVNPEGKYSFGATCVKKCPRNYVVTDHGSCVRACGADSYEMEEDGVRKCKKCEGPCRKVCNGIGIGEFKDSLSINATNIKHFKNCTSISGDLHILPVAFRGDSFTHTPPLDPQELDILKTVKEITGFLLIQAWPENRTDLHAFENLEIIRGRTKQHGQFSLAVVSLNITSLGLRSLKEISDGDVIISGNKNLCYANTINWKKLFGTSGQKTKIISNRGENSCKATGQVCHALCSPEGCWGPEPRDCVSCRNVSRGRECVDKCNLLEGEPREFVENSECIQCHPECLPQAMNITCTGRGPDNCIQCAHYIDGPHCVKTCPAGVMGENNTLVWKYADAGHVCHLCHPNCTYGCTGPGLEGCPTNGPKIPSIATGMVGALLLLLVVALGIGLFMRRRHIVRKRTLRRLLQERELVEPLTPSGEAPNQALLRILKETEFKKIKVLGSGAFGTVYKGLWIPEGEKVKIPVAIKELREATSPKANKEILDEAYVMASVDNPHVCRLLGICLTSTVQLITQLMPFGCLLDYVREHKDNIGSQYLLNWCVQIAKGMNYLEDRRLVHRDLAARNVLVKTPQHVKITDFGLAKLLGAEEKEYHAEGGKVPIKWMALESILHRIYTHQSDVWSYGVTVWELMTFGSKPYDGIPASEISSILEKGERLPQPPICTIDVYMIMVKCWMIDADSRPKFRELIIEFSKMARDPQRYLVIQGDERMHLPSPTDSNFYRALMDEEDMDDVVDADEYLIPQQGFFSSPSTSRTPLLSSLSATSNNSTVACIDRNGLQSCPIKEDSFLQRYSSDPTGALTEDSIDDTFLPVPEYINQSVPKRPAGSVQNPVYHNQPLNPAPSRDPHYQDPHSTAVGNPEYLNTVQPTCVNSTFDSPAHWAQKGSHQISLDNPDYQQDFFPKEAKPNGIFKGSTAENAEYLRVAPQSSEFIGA

ERBB2/3 = ERBB2/3 (Homo sapiens, UniProt P04626+P21860); experiment: ERBBprofiler barcoded split TEV assay, ERBB2/3
EGFR CRE = experiment: ERBBprofiler barcoded CRE pathway sensor, EGFR co-transfected; conditions: Rattus norvegicus, PC-12, 6 h, read-out: EGFR CRE IC50
ERBB2/3 CRE = experiment: ERBBprofiler barcoded CRE pathway sensor, ERBB2/3 co-transfected; conditions: Rattus norvegicus, PC-12, 6 h, read-out: ERBB2/3 CRE IC50
EGR1p (ERBB4) = experiment: EGR1p pathway sensor luciferase assay, ERBB4 transfected; assay type: cell-based, Rattus norvegicus; conditions: agonist dose response, PC12 cells, luciferase readout
Protocol: as §1

[10] = biological target: EGR1p (MAPK signaling), EGFR; experiment: EGR1p pathway sensor luciferase assay, EGFR; assay type: cell-based, Rattus norvegicus; conditions: agonist dose response, PC12 cells, luciferase readout
Protocol: as §1

[11] = biological target: EGR1p (MAPK/ERK signaling); experiment: ERBBprofiler barcoded EGR1p sensor only (no receptor transfected); conditions: agonist dose response, PC12 cells, barcode readout
ERBB4 [12] = biological target: T1, ERBB4 (Homo sapiens, UniProt Q15303); experiment: Split TEV firefly luciferase assay, ERBB4; assay type: cell-based; conditions: agonist dose response, PC12 cells, split TEV, luciferase readout
T1 sequence (Q15303 26-1308): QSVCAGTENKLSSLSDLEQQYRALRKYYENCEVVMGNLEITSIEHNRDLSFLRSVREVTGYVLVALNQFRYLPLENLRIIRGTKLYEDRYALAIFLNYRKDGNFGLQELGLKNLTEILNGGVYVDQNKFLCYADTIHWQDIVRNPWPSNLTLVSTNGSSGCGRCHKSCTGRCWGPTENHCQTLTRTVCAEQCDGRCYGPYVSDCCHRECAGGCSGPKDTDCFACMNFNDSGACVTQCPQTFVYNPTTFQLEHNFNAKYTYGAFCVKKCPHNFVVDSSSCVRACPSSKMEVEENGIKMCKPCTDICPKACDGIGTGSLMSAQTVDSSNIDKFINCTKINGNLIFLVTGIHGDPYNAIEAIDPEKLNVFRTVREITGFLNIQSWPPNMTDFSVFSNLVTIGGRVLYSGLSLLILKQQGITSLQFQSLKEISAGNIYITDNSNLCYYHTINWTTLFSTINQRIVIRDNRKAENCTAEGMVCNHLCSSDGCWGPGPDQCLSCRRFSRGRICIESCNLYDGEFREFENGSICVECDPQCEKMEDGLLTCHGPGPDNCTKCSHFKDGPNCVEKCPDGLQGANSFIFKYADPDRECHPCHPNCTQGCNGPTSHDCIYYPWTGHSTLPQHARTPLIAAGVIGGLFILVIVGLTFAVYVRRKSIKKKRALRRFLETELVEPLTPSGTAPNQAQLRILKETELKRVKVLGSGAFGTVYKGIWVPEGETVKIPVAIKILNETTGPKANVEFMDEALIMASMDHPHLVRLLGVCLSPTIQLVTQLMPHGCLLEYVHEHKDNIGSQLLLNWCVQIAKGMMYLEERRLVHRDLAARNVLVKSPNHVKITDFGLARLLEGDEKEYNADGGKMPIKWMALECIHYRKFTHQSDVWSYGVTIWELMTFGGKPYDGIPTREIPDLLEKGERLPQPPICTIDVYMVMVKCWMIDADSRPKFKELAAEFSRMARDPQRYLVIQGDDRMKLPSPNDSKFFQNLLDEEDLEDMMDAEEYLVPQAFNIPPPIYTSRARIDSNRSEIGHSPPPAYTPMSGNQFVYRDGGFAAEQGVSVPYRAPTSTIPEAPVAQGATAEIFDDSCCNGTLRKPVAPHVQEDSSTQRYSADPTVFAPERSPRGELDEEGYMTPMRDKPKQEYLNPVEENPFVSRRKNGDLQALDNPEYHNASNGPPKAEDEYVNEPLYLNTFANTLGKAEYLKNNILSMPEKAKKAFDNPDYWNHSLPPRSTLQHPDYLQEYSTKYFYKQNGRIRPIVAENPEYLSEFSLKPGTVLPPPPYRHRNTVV
Protocol: as §1

ERBB4 [13] = biological target: T1, ERBB4; experiment: ERBBprofiler barcoded split TEV assay, ERBB4; conditions: agonist dose response, PC12 cells, 6 h, split TEV, barcode readout

Molecule: C[C@]12CCC(=O)C=C1C=C[C@@H]1[C@@H]2CC[C@@]2(C)[C@H]1CC[C@@]21CCC(=O)O1 [Canrenone]
- CRE sensor response at high compound concentration (barcoded) ([1]; 10 μM compound): upregulated CRE sensor response
- inhibition of ERBB receptors and pathways (barcoded ERBBprofiler), in words [1]: did not inhibit any ERBB receptor nor pathway monitored

Molecule: C#Cc1cccc(Nc2ncnc3cc(OCCOC)c(OCCOC)cc23)c1 [Erlotinib, Erlotinib hydrochloride]
- ERBB4 NFAT IC50 (ERBB4 NFAT): no effect (EGFR, ERBB2/3, ERBB4), 0.098 µM (HTR2A, small effect)
- IC50 (ERK (MAPK)): 160 to 290 nM
- IC50 (HTR2A NFAT): 98 nM
- IC50 (ERBB4 EGR1p): 698 nM
- IC50 (ERBB2/3 EGR1p; Rattus norvegicus, PC-12, 6 h): 304 nM

Molecule: CS(=O)(=O)CCNCc1ccc(-c2ccc3ncnc(Nc4ccc(OCc5cccc(F)c5)c(Cl)c4)c3c2)o1 [Lapatinib, Lapatinib (GW-572016) Ditosylate]
- EGFR NFAT IC50 (EGFR NFAT): no effect (EGFR, ERBB2/3, ERBB4), 0.352 - 4.531 µM (HTR2A)
- ERBB4 NFAT IC50 (ERBB4 NFAT): no effect (EGFR, ERBB2/3, ERBB4), 0.352 - 4.531 µM (HTR2A)
- IC50 (EGFR EGR1p; Rattus norvegicus, PC-12, 6 h): 244 nM
- IC50 (EGFR EGR1p): 122 nM and 122 to 244 nM
- IC50 (HTR2A EGR1p; Rattus norvegicus, PC-12, 6 h): 45 nM
- IC50 (HTR2A EGR1p): 34 nM and 34 to 45 nM
- IC50 (ERBB2/3 EGR1p; Rattus norvegicus, PC-12, 6 h): 41 nM
- IC50 (ERBB2/3 EGR1p): 71 nM and 41 to 71 nM

Molecule: C=CC(=O)Nc1cc(Nc2nccc(-c3cn(C)c4ccccc34)n2)c(OC)cc1N(C)CCN(C)C [Osimertinib, Osimertinib (AZD9291)]
- EGFR NFAT IC50 (EGFR NFAT): no effect (EGFR, ERBB2/3, ERBB4) - 0.772 µM (HTR2A)
- ERBB4 NFAT IC50 (ERBB4 NFAT): no effect (EGFR, ERBB2/3, ERBB4) - 0.772 µM (HTR2A)
- effect on CRE sensor activity (luciferase), in words (CRE sensor; PC12 cells, CRE sensor only, stimulation mix): CRE sensor activation at high compound concentrations
- EC50 (CRE sensor; Rattus norvegicus, PC-12): 3010 nM
- EC50 (cAMP): 3910 nM
- effect on calcium levels (Fluo-4 AM) (calcium): but not calcium levels
- IC50 (EGFR EGR1p; Rattus norvegicus, PC-12, 6 h): 80 nM
- IC50 (HTR2A NFAT): 772 nM
- IC50 (ERBB4 EGR1p): 37 nM
- IC50 (HTR2A EGR1p; Rattus norvegicus, PC-12, 6 h): 109 nM
- IC50 (ERBB2/3 EGR1p; Rattus norvegicus, PC-12, 6 h): 56 nM

Molecule: NCCc1c[nH]c2ccc(O)cc12 [Serotonin, Serotonin hydrochloride]
- EC50 (CRE (HTR2A)): 465 nM
- EC50 (NFAT (HTR2A)): 61 nM
- EC50 (HTR2A CRE): 164 nM
- EC50 (HTR2A NFAT; read-out: NFAT (HTR2A) activity EC50 (barcode), agonist dose response, PC12 cells, HTR2A co-transfected, barcode readout): 73 nM
- EC50 [8]: 167 nM

Molecule: CC(=O)S[C@@H]1CC2=CC(=O)CC[C@]2(C)[C@H]2CC[C@@]3(C)[C@@H](CC[C@@]34CCC(=O)O4)[C@H]12 [Spironolactone]
- IC50 (EGFR [9]): > 10000 nM
- IC50 (ERBB2/3): > 10000 nM
- IC50 (EGFR CRE): 8.41 nM
- IC50 (ERBB2/3 CRE): 905 nM
- IC50 (ERBB4 EGR1p): > 10000 nM

Molecule: Heregulin-β1 (EGF Domain) human (EGF-like domain) [EGFld]
- EGR1p (ERBB4) activity EC50 (luciferase) (EGR1p (ERBB4)): 0.384 ng/mL
- EGR1p (ERBB4) activity EC50 (barcode) (ERBB4 EGR1p): 0.607 ng/mL

Molecule: hEGF
- EGR1p activity EC50 (luciferase) [10]: 0.161 ng/mL
- EGR1p (ERBB4) activity EC50 (barcode) (ERBB4 EGR1p): 0.093 ng/mL
- EGR1p activity EC50 (barcode) [11]: 0.089 ng/mL

B1: Heregulin-β1 (EGF Domain) human (EGF-like domain) (protein)
chain: TSHLVKCAEKEKTFCVNGGECFMVKDLSNPSRYLCKCPNEFTGDRCQNYVMASFYKHLGIEFMEAEELYQK
modifications: three disulfides
notes: EGF-like domain, ligand for ERBB3 and ERBB4
- ERBB4 activity EC50 (luciferase) (ERBB4 [12]): 0.700 ng/mL
- ERBB4 activity EC50 (barcode) (ERBB4 [13]): 1.372 ng/mL
- ERBB2/3 EC50 (barcode) (ERBB2/3; agonist dose response, PC12 cells, 6 h, split TEV, barcode readout): 0.143 ng/mL
